Read-outs that look alike come from different tables or passages of the source.
What was measured:
Assay type in all cases: cell-based
[1] = target: T1, protein kinases (human kinome) (Homo sapiens, UniProt P53778); settings: for logFC MAPK12 (P53778): direction of change down; for logFC: MAPK12 (P53778)
T1 sequence (P53778 1-367): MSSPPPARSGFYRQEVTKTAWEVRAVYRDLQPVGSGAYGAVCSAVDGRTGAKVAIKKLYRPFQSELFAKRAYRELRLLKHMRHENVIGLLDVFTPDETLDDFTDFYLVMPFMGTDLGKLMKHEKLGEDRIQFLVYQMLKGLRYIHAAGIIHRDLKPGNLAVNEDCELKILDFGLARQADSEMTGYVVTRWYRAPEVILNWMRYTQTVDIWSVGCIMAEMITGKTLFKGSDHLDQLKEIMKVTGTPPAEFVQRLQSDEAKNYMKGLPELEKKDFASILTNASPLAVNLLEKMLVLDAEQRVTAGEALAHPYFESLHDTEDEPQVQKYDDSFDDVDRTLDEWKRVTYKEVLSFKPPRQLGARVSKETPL

[2] = target: protein kinases (human kinome) (Homo sapiens, UniProt P49841)
Chain of protein kinases (human kinome) (Homo sapiens, UniProt P49841) (P49841 whole entry): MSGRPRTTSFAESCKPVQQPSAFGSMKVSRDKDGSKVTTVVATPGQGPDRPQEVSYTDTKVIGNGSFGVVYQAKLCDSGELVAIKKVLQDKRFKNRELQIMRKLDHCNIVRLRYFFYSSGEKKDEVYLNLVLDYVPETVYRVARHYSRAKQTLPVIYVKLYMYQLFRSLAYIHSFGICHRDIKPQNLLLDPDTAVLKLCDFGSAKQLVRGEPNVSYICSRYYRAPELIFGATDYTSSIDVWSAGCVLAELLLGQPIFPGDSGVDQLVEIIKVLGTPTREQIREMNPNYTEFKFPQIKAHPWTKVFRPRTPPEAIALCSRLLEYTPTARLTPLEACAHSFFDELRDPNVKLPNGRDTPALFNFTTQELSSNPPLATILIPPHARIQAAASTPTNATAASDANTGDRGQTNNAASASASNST

[3] = target: T2, protein kinases (human kinome) (Homo sapiens, UniProt Q13163); settings: experiment wp071
T2 sequence (Q13163 1-448): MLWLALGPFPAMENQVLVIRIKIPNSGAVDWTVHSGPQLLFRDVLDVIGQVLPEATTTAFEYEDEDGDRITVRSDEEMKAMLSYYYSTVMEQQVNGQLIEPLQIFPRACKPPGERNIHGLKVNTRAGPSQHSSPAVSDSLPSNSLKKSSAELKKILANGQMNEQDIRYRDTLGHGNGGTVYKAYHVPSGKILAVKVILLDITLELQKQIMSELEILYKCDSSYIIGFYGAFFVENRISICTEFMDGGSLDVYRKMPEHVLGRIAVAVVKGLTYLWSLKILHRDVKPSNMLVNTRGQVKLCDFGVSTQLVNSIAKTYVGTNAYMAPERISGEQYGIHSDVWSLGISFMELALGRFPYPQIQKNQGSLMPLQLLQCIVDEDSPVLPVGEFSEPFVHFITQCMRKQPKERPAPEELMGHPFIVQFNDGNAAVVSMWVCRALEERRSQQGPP

[4] = target: protein kinases (human kinome) (Homo sapiens, UniProt Q9UHD2); settings: experiment wp146
Chain of protein kinases (human kinome) (Homo sapiens, UniProt Q9UHD2) (Q9UHD2 whole entry): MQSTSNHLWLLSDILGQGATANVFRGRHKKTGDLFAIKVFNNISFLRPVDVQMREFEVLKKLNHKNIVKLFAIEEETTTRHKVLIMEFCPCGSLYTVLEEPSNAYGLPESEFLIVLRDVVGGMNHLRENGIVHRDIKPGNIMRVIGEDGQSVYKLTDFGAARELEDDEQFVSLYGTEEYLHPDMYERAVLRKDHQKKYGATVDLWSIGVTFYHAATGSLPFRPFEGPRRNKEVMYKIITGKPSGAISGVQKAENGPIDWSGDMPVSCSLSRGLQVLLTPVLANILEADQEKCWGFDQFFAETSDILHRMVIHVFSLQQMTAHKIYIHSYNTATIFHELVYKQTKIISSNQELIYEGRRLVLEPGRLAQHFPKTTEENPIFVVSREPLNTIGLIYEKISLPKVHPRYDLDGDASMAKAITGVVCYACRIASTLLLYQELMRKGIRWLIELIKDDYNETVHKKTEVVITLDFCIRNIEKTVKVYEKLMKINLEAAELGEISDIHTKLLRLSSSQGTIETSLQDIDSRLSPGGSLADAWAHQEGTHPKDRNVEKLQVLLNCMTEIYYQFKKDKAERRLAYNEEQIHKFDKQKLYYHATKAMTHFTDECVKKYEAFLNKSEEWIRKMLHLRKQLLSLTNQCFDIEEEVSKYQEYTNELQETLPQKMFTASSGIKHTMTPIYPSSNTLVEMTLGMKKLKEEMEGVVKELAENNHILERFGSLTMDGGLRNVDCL

[5] = target: protein kinases (human kinome) (Homo sapiens, UniProt P51957); settings: experiment wp146
Chain of protein kinases (human kinome) (Homo sapiens, UniProt P51957) (P51957 whole entry): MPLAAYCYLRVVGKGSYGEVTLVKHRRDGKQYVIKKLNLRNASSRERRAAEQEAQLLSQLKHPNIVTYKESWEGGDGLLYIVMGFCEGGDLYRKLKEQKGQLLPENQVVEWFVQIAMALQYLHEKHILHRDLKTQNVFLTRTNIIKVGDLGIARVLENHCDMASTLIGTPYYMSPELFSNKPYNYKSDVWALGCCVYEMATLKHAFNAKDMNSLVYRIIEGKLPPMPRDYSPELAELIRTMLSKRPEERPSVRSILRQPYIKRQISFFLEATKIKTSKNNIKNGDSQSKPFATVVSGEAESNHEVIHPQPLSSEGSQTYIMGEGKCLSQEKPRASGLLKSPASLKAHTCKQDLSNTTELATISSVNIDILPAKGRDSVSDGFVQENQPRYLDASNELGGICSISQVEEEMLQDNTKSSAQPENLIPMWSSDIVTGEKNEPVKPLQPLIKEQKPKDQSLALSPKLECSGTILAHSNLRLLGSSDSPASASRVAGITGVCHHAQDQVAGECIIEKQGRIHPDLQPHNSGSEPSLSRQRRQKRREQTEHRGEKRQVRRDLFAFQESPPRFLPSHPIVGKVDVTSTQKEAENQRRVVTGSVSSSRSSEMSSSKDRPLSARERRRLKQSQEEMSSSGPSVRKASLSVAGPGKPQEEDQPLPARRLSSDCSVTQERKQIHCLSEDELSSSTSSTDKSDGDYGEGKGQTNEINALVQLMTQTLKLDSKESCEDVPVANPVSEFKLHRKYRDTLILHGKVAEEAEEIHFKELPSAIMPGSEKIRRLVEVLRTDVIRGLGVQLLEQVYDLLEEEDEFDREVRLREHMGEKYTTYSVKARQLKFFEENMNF

[6] = target: protein kinases (human kinome) (Homo sapiens, UniProt P52429); settings: protein DGKE (P52429); experiment wp056; down
[7] = target: protein kinases (human kinome) (Homo sapiens, UniProt Q16760); settings: protein DGKD (Q16760-1); experiment wp045; down
[8] = target: protein kinases (human kinome) (Homo sapiens, UniProt Q14680); settings: experiment wp131
[9] = target: protein kinases (human kinome) (Homo sapiens, UniProt O60307); settings: experiment wp107
Chain of protein kinases (human kinome) (Homo sapiens, UniProt O60307) (O60307 whole entry): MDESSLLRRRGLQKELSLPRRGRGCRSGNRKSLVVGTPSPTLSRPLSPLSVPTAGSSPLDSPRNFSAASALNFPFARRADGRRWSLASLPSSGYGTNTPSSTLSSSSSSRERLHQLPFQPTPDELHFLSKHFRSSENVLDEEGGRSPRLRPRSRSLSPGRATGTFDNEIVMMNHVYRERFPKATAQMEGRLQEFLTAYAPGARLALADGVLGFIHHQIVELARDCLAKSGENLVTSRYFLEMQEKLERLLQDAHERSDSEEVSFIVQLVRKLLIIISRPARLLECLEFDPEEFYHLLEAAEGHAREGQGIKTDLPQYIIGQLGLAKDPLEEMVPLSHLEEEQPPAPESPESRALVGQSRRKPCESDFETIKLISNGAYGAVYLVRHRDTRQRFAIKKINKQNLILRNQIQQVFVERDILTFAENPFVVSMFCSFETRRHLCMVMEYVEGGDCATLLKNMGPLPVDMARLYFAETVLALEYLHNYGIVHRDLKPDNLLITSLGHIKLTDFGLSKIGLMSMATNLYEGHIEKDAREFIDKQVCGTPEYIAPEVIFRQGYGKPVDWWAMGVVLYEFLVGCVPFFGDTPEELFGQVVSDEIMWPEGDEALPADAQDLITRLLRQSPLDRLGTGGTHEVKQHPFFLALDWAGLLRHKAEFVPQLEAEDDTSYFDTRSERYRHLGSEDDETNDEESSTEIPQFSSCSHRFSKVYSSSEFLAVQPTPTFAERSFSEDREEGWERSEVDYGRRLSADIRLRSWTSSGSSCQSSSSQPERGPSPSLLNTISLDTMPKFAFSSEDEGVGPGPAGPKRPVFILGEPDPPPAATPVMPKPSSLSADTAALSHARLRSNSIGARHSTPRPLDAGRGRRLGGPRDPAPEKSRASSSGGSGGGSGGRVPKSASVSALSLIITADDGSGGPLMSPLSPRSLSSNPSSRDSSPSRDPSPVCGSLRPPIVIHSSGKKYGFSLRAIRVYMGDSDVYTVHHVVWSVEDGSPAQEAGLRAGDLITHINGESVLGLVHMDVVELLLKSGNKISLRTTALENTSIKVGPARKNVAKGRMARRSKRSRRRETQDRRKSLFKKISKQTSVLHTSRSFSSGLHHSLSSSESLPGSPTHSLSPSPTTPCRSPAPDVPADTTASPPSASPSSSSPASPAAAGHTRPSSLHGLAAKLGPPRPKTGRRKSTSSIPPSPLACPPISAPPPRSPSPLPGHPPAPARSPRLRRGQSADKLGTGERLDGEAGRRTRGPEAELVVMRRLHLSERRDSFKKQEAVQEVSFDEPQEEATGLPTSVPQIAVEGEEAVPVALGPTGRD

[10] = target: protein kinases (human kinome) (Homo sapiens, UniProt Q13131); settings: for logFC PRKAA1 (Q13131): direction down
Chain of protein kinases (human kinome) (Homo sapiens, UniProt Q13131) (Q13131 whole entry): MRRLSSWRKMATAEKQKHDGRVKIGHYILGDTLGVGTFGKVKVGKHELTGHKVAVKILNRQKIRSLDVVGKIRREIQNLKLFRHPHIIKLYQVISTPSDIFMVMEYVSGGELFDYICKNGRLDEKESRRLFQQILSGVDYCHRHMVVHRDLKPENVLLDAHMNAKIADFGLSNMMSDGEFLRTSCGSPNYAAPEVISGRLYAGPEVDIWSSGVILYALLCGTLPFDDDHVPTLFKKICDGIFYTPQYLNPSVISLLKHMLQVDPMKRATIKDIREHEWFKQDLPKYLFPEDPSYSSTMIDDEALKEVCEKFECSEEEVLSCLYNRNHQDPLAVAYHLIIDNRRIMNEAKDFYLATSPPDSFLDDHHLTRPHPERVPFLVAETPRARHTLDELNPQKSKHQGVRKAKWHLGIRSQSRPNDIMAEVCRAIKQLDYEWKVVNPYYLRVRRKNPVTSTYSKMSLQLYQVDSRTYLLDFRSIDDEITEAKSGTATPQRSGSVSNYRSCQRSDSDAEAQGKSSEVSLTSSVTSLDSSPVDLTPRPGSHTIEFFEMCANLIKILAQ

[11] = target: protein kinases (human kinome) (Homo sapiens, UniProt Q86Z02); settings: experiment wp133, 4 hr
[12] = target: protein kinases (human kinome) (Homo sapiens, UniProt Q96GD4); settings: for logFC AURKB: AURKB Q96GD4
Chain of protein kinases (human kinome) (Homo sapiens, UniProt Q96GD4) (Q96GD4 whole entry): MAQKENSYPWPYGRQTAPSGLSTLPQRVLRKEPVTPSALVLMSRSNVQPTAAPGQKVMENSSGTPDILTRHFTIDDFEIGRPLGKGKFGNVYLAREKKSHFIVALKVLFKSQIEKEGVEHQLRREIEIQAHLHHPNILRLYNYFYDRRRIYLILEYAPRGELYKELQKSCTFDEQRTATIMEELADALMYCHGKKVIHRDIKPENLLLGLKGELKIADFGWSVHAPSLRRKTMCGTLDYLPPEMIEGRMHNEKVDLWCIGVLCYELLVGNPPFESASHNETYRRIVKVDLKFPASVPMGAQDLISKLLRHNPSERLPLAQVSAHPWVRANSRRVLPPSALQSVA

[13] = target: protein kinases (human kinome) (Homo sapiens, UniProt P50750)
Chain of protein kinases (human kinome) (Homo sapiens, UniProt P50750) (P50750 whole entry): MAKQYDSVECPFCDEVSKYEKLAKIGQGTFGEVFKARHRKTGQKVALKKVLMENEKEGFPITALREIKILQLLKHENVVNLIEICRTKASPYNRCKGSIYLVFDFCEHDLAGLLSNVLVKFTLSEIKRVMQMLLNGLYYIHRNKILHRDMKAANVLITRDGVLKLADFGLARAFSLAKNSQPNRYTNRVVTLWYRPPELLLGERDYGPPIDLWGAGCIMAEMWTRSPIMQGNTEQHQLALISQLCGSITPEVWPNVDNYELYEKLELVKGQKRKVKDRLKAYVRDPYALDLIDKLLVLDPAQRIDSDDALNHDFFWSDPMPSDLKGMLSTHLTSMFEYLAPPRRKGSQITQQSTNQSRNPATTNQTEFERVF

[14] = target: protein kinases (human kinome) (Homo sapiens, UniProt P17948); settings: experiment wp131
[15] = target: protein kinases (human kinome) (Homo sapiens, UniProt O00418); settings: experiment wp137

In the case of `Cc1ccc(NC(=O)c2cccc(C(F)(F)F)c2)cc1N1Cc2cnc(Nc3ccc(N4CCN(Cc5cn(CCCCCOc6cccc7c6C(=O)N(C6CCC(=O)NC6=O)C7=O)nn5)CC4)nc3)nc2N(C)C1=O` (stereo not shown) [DB0646, N-(3-(7-((6-(4-((1-(5-((2-(2,6-Dioxopiperidin-3-yl)-1,3-dioxoisoindolin-4-yl)oxy)pentyl)-1H-1,2,3-triazol-4-yl)methyl)piperazin-1-v)pyridin-3-yl)amino)-1-methyl-2-oxo-1,4-dihydropyrimido[4,5-d]pyrimidin-3(2H)-yl)-4-methylphenyl)-3-(trifluoromethyl)benzamide], the “logFC MAPK12 (P53778)” value ([1]; Experiment wp105) is reported as −0.5939, the logFC ([1]; experiment wp105) is reported as −0.5939 and the logFC ([1]; experiment wp172) is reported as −1.457. The “logFC MAPK12 (P53778)” value ([1]; experiment wp172) was −1.457.
`Nc1ncc(-c2ccc(S(=O)(=O)N(CCCNC(=O)CCOCCOCCOCCOCCOCCNc3cccc4c3C(=O)N(C3CCC(=O)NC3=O)C4=O)C3CC3)cc2)cc1-c1ccc2c(c1)CCNC2=O` (stereo not shown) [WH.10417.099] was tested, and the “logFC GSK3B” value ([2]; Accession P49841-1, experiment wp172, direction down) was −0.8298 and the “logFC of GSK3B (P49841-1)” value ([2]; Experiment wp172) was −0.8298.
In the case of `Nc1ncnc2c1c(-c1ccc(Oc3ccccc3)cc1)nn2[C@H]1CC[C@H](N2CCN(CCOCCNC(=O)CNc3cccc4c3C(=O)N(C3CCC(=O)NC3=O)C4=O)CC2)CC1` (stereo partly shown) [SB1.G.181], the logFC ([3]; MAP2K5 (Q13163-1)) is reported as −1.138 and the “logFC of MAP2K5 (Q13163-1)” value [3] is reported as −1.138.
With `Cc1cc(Nc2ncc(Br)c(Nc3cccc(F)c3C(N)=O)n2)ccc1S(=O)(=O)NCCOCCOCCOCCOCCNc1cccc2c1C(=O)N(C1CCC(=O)NC1=O)C2=O` (stereo not shown) [TMX.02.174] the “logFC TBK1 (Q9UHD2)” value ([4]; direction of change down) was −0.5951, the “logFC TBK1” value ([4]; protein TBK1 (Q9UHD2), down) was −0.5951 and the “logFC NEK4 (P51957)” value ([5]; direction of change down) was −0.9508. For the same compound, the “logFC NEK4” value ([5]; protein NEK4 (P51957), down) was −0.9508.
In the case of `C=CCn1c(=O)c2cnc(Nc3ccc(N4CCN(CCCNc5cccc6c5C(=O)N(C5CCC(=O)NC5=O)C6=O)CC4)cc3)nc2n1-c1cccc(C(C)(C)O)n1` (stereo not shown) [ZNL.02.096], the “logFC DGKE” value [6] is reported as −0.3512.
With `Cc1ccc(NC(=O)c2cccc(C(F)(F)F)c2)cc1N1Cc2cnc(Nc3ccc(N4CCN(CCCCCCOc5cccc6c5C(=O)N(C5CCC(=O)NC5=O)C6=O)CC4)nc3)nc2N(C)C1=O` (stereo not shown) [DB0663] the “logFC DGKD” value [7] was −0.5955.
For `Cc1ncsc1-c1ccc([C@H](C)NC(=O)[C@@H]2C[C@@H](O)CN2C(=O)[C@@H](NC(=O)CCOCCOCCN2CCN(c3ccc(Nc4ncc(Cl)c(Nc5ccccc5S(=O)(=O)C(C)C)n4)cc3)CC2)C(C)(C)C)cc1` [FMF.06.098.1], the “logFC MELK (Q14680)” value ([8]; direction of change down) was −0.38 and the “logFC MELK” value ([8]; protein MELK (Q14680), down) was −0.38.
`CC(C)S(=O)(=O)c1ccccc1Nc1nc(Nc2ccc(N3CCN(CCOCCNC(=O)CNc4cccc5c4C(=O)N(C4CCC(=O)NC4=O)C5=O)CC3)cc2)ncc1Cl` (stereo not shown) [SK.3.91] was tested, and the “logFC MAST3 (O60307)” value ([9]; direction of change down) was −0.4984, the “logFC MAST3” value ([9]; protein MAST3 (O60307), down) was −0.4984 and the “logFC of PRKAA1 (Q13131)” value ([10]; Experiment wp160, 2 hr) was −0.3284. The “logFC PRKAA1 (Q13131)” value ([10]; Experiment wp160, 2 hr) was −0.3284, the “logFC PRKAA1 (Q13131)” value ([10]; Experiment wp160, 4 hr) was −0.6117 and the “logFC of PRKAA1 (Q13131)” value ([10]; Experiment wp172) was −0.4542. For the same compound, the “logFC PRKAA1 (Q13131)” value ([10]; Experiment wp172) was −0.4542, the “logFC of PRKAA1 (Q13131)” value ([10]; experiment wp160, 4 hr) was −0.6117 and the “logFC HIPK1 (Q86Z02)” value ([11]; direction of change down) was −0.4009. The “logFC HIPK1” value ([11]; protein HIPK1 (Q86Z02), down) was −0.4009, the “logFC AURKB” value ([12]; experiment wp160, 4 hr) was −0.4984 and the “logFC AURKB” value ([12]; experiment wp172) was −1.11. The “logFC of AURKB (Q96GD4)” value ([12]; Experiment wp172) was −1.11, the “logFC of AURKB (Q96GD4)” value ([12]; experiment wp160, 4 hr) was −0.4984 and the “logFC CDK9 (P50750)” value ([13]; Experiment wp160, 2 hr) was −0.404. For the same compound, the “logFC of CDK9 (P50750)” value ([13]; Experiment wp160, 2 hr) was −0.404, the “logFC CDK9 (P50750)” value ([13]; Experiment wp172) was −1.423 and the “logFC of CDK9 (P50750)” value ([13]; Experiment wp172) was −1.423. The “logFC CDK9 (P50750)” value ([13]; experiment wp160, 4 hr) was −1.068 and the “logFC of CDK9 (P50750)” value ([13]; experiment wp160, 4 hr) was −1.068.
With `CC(C)S(=O)(=O)c1ccccc1Nc1nc(Nc2ccc(N3CCN(CCOCCOCCNC(=O)CNc4cccc5c4C(=O)N(C4CCC(=O)NC4=O)C5=O)CC3)cc2)ncc1Cl` (stereo not shown) [TL12.186] the “logFC FLT1 (P17948-1)” value ([14]; direction of change down) was −0.699, the “logFC FLT1” value ([14]; protein FLT1 (P17948-1), down) was −0.699 and the “logFC EEF2K (O00418)” value ([15]; direction of change down) was −0.3443. For the same compound, the “logFC EEF2K” value ([15]; protein EEF2K (O00418), down) was −0.3443.

— patent US20240269139A1, “COMPOUNDS FOR TARGETED PROTEIN DEGRADATION OF KINASES” (DANA-FARBER CANCER INSTITUTE, INC., priority 2020, published 2024)
